# Test results from paper PMC4728128, “Two-subunit DNA escort mechanism and inactive subunit bypass in an ultra-fast ring ATPase” (eLife, 2015).
# How the values were obtained:
# [1] = molecular target: T1, SpoIIIE (Bacillus subtilis, UniProt P21458); test: optical tweezers rupture force of SpoIIIE-DNA tether (indirect sign of nucleotide binding); details: 1 mM ADP, no ATP; dsDNA
# T1 construct: N-terminal biotin tag (PinPoint Xa-1) fused to SpoIIIE from plasmid pJB103 (Bath et al. 2000); recombinant, purified; homo-hexamer
# T1 sequence (P21458 175-787): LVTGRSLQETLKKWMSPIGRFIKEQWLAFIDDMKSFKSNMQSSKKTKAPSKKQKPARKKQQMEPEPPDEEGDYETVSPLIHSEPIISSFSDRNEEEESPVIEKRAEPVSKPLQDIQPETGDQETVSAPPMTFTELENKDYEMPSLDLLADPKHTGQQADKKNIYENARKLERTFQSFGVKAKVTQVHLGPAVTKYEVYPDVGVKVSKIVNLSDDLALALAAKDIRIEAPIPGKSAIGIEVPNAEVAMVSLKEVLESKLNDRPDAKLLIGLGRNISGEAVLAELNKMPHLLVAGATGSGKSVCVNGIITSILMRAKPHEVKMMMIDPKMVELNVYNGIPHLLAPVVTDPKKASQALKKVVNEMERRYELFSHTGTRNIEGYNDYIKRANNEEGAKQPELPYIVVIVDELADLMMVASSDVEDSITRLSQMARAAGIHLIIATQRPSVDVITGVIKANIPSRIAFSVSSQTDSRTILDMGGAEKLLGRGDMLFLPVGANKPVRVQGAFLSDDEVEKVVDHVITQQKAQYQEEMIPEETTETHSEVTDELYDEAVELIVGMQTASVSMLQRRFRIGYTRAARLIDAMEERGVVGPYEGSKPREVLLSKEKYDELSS
# [2] = molecular target: T1, SpoIIIE; test: single-molecule optical tweezers DNA translocation; assay type: biochemical; details: dsDNA, 50 mM Tris-HCl pH 7.5, 10 mM MgCl2
SMILES,optical tweezers rupture force of SpoIIIE-DNA tether (indirect sign of nucleotid) [1],Km [2] [µM]
Nc1ncnc2c1ncn2[C@@H]1O[C@H](COP(=O)(O)OP(=O)(O)O)[C@@H](O)[C@H]1O [ADP],"In buffers containing only ADP or ATPγS, SpoIIIE could bind to DNA",
Nc1ncnc2c1ncn2[C@@H]1O[C@H](COP(=O)(O)OP(=O)(O)OP(=O)(O)O)[C@@H](O)[C@H]1O [ATP],,505 ± 50
